Measured values from the supplement of paper PMC10307832.

Columns and labels:
Assay in all cases: relative viability (nuclei count vs DMSO), 5 days (fraction); higher = more cells survive
[1] = compound: CC1CC(=O)N(C2=CN=C(N=C2N1C3CCCC3)NC4=C(C=C(C=C4)C(=O)NC5CCN(CC5)C)OC)C [NPK76-II-72-1] + CC1(C)CCC(c2ccc(Cl)cc2)=C(CN2CCN(c3ccc(C(=O)NS(=O)(=O)c4ccc(N[C@H](CCN5CCOCC5)CSc5ccccc5)c(S(=O)(=O)C(F)(F)F)c4)cc3)CC2)C1 [Navitoclax] (partner 0.5 µM)
Procedure, shortened: (§1)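 After 5 days of treatment, lung cancer cells in 1536-well plates were fixed and stained in a single step (final 0.05% Triton X-100, 1% formaldehyde, 1 ug/ml Hoechst) and their nuclei counted on 4× images. Treatment had been applied by pin tool the day after seeding as one drug alone or as a fixed anchor-drug dose with five library-drug doses (not always all listed) in √10 steps. Relative viability is the nuclei count of treated wells divided by that of vehicle wells, and values are medians of duplicate plates.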

[2] = compound: CC1CC(=O)N(C2=CN=C(N=C2N1C3CCCC3)NC4=C(C=C(C=C4)C(=O)NC5CCN(CC5)C)OC)C [NPK76-II-72-1] + CC(C)C[C@H](NC(=O)[C@H](Cc1ccccc1)NC(=O)c1cnccn1)B(O)O [Bortezomib] (partner 0.002 µM)
Procedure, shortened: as §1

[3] = compound: CC1CC(=O)N(C2=CN=C(N=C2N1C3CCCC3)NC4=C(C=C(C=C4)C(=O)NC5CCN(CC5)C)OC)C [NPK76-II-72-1] + C[C@]1(O)C[C@@H](c2nc(-c3ccc4ccc(-c5ccccc5)nc4c3)c3c(N)nccn32)C1 [Linsitinib] (partner 1 µM)
Procedure, shortened: as §1

[4] = compound: CC[C@@H]1C(=O)N(C)c2cnc(Nc3ccc(C(=O)NC4CCN(C)CC4)cc3OC)nc2N1C1CCCC1 [BI-2536] + Cc1nc(NC(=O)N2CCC[C@H]2C(N)=O)sc1-c1ccnc(C(C)(C)C(F)(F)F)c1 [Alpelisib] (partner 2 µM)
Procedure, shortened: as §1

UMC-11 showed a relative viability ([1]; first compound 0.01 µM) of 0.313, a relative viability ([1]; first compound 0.03162 µM) of 0.276 and a relative viability ([1]; first compound 0.1 µM) of 0.302. The relative viability ([1]; first compound 0.3162 µM) was 0.305, the relative viability ([1]; first compound 1 µM) was 0.357 and the relative viability ([2]; first compound 0.01 µM) was 0.743. It also gave a relative viability ([2]; first compound 0.03162 µM) of 0.605, a relative viability ([2]; first compound 0.1 µM) of 0.773 and a relative viability ([2]; first compound 0.3162 µM) of 0.659. For the same cell line, the relative viability ([2]; first compound 1 µM) was 0.788, the relative viability ([3]; first compound 0.01 µM) was 1 and the relative viability ([3]; first compound 0.03162 µM) was 1.08. For the same cell line, the relative viability ([3]; first compound 0.1 µM) was 1, the relative viability ([3]; first compound 0.3162 µM) was 0.927 and the relative viability ([3]; first compound 1 µM) was 0.976. The relative viability ([4]; first compound 0.01 µM) was 0.978, the relative viability ([4]; first compound 0.03162 µM) was 0.733 and the relative viability ([4]; first compound 0.1 µM) was 0.312. The relative viability ([4]; first compound 0.3162 µM) was 0.152 and the relative viability ([4]; first compound 1 µM) was 0.126.
